Test results as given in US5618726A, “Biodegradable azo dyes” (priority 1994, dated 1997).
Read-outs that look alike come from different tables or passages of the source.

Columns and labels:
[1] = tested on: Streptomyces spp.; assay: Decolorization of naphthol azo dyes by Streptomyces spp.; type: cell-based
Excerpt: (§1) Microbiol., 1984, 130:2905-2913.
(§2) Replicate sterile controls also were run in each experiment.

[2] = tested on: S. badius 252; type: cell-based; details: streptomyces badius 252 culture, 336 h
Excerpt: as §1, §2

[3] = tested on: S. diastaticus A12; type: cell-based; details: streptomyces diastaticus a12 culture, 336 h
Excerpt: as §1, §2

[4] = tested on: S. diastaticus A13; type: cell-based; details: streptomyces diastaticus a13 culture, 336 h
Excerpt: as §1, §2

[5] = tested on: S. rochei A10; type: cell-based; details: streptomyces rochei a10 culture, 336 h
Excerpt: as §1, §2

[6] = tested on: S. rochei A14; type: cell-based; details: streptomyces rochei a14 culture, 336 h
Excerpt: as §1, §2

[7] = tested on: S. chromofuscus A11; details: streptomyces chromofuscus a11 culture, 336 h
Method: as §1, §2
The Streptomyces were grown on the same media and under the same conditions as previously described. […] Thus, the spectrophotometric assays for substrates 1-12 were carried out at their specific isobastic points. Degradation was calculated as percent of substrates removed from culture broth, considering the evaporation factor (around 10%).

[8] = tested on: Phanerochaete chrysosporium; assay: Substrate removal / decolorization by P. chrysosporium culture; type: cell-based; details: growth period 7 days
Method: Environ. Microbiol., 1981, 42:290-296), with the addition of 75 mg adenine (6-aminopurine) and 27 mg L-phenylalanine-per-liter. This addition accelerated the growth of the fungus without inhibiting ligninase activity. […] […] Cultures were incubated at 37° C. for 7 to 15 days with shaking (250 rpm). Solid agar media were also employed.

[9] = tested on: S. chromofuscus A20; details: streptomyces chromofuscus a20 culture, 336 h
Method: (§3) Each Streptomyces species was grown in a cotton-plugged 250 ml flask containing 25 ml of the following medium: 0.2M Tris buffer (pH 7.6), 100 ml; vitamin-free Casamino acids (Difco), 1.0 g; thiamine, 100 μg; biotin, 100 μg; D-glucose, 2 g; deionized water, 900 ml.
The dyes were filter-sterilized and added at 0.005% (w/v) to the autoclaved basal medium. Alternatively, azo dye stock solutions were sterilized by filtration (pore size 0.2 μm) and added to autoclaved basal medium at concentrations of 50 or 100 ppm. Three replicates of every culture were incubated, and each strain was grown in media supplemented individually with every substrate. Replicate sterile controls also were run in each experiment. Cultures were incubated at 37° C. for 14 days with shaking (200-250 rpm). Three replicates for each strain growth were incubated in only the basal medium as well.
A one ml sample of culture medium was centrifuged and then diluted 2.5-5.0 fold (actinomycete culture) or 5- to 10-fold (fungal culture) with distilled water. Alternatively, 1.0 ml of fungal supernatant was centrifuged and diluted 5-fold with 10 mM sodium 2,2-dimethylsuccinate buffer (DMS) of pH 4.5. Azo dye substrate present was then measured spectrophotometrically with a Hewlett-Packard 8452 diode array spectrophotometer operated by a PC Vectra computer equipped with HP's MS™-DOS/UV-VIS software. To be certain that changes in substrate spectra were not due to pH variations, the effects of pH on the visible absorption of each compound were also assayed within physiological pH range in the culture media. […] Thus, the spectrophotometric assays for the dyes were typically carried out at their isobestic points. For instance, the spectrophotometric assays were carried out at 450 nm for azo dye 1 and 400 nm for azo dye 2. […] The compounds were quantified by first developing standard curves of absorbance versus concentrations (0-50 μg) and then comparing measured absorbance values to the standard curves.

[10] = tested on: S. viridosporus T7A; details: streptomyces viridosporus t7a culture, 336 h
Method: as §3
(§4) The dyes were filter-sterilized and added at 0.005% (w/v) to the autoclaved basal medium. Alternatively, azo dye stock solutions were sterilized by filtration (pore size 0.2 μm) and added to autoclaved basal medium at concentrations of 50 or 100 ppm. Three replicates of every culture were incubated, and each strain was grown in media supplemented individually with every substrate. Replicate sterile controls also were run in each experiment. […] Three replicates for each strain growth were incubated in only the basal medium as well.
(§5) A one ml sample of culture medium was centrifuged and then diluted 2.5-5.0 fold (actinomycete culture) or 5- to 10-fold (fungal culture) with distilled water. Alternatively, 1.0 ml of fungal supernatant was centrifuged and diluted 5-fold with 10 mM sodium 2,2-dimethylsuccinate buffer (DMS) of pH 4.5. […] To be certain that changes in substrate spectra were not due to pH variations, the effects of pH on the visible absorption of each compound were also assayed within physiological pH range in the culture media. While the spectra of sulfanilic acid (Max abs at 250 nm), vanillic acid (Max abs at 252 nm and 286 nm) and acid yellow 9 (Max abs at 336 nm) were unaffected by pH over the tested pH range, the spectra of several novel azo dyes were changed as evidenced by shifts of their Absmax. Thus, the spectrophotometric assays for the dyes were typically carried out at their isobestic points. […] Spectrophotometric measurements were carried out at the absorbance maxima for azo dyes 16, 17, 18, 19, 31, and 32 (See Table 1 below). […] The compounds were quantified by first developing standard curves of absorbance versus concentrations (0-50 μg) and then comparing measured absorbance values to the standard curves.

[11] = tested on: S. rochei A4; assay: Substrate removal by Streptomyces culture; type: cell-based, Streptomyces rochei; details: growth period 14 days
Excerpt: as §2

[12] = tested on: S. viridosporus T7A; assay: Substrate removal by Streptomyces culture; details: growth period 14 days
Method: as §3, §4, §5

Row | Percent substrate removed, S. badius 252 [2] [%] | Percent substrate removed, S. diastaticus A12 [3] [%] | Percent substrate removed, S. diastaticus A13 [4] [%] | Percent substrate removed, S. rochei A10 [5] [%] | Percent substrate removed, S. rochei A14 [6] [%] | Percent substrate removed, S. chromofuscus A11 [7] [%] | Percent substrate removed, P. chrysosporium [8] [%] | Percent substrate removed, S. chromofuscus A20 [9] [%] | Percent substrate removed, S. viridosporus T7A [10] [%] | SMILES | Decolorization by Streptomyces spp. [1] | Percent substrate removed, S. rochei A4 [11] [%] | Percent substrate removed, S. viridosporus T7A [12] [%]
1 |  |  |  |  |  |  |  |  |  | O=S(=O)(O)c1ccc(N=Nc2c(O)ccc3ccccc23)cc1 [Azo dye 31, 4-(2-hydroxy-1-naphthylazo)benzenesulfonic acid] | not |  | 
2 | 18 | 30 | 21 | 74 | 72 | 89 | 94 | 11 | 9 | COc1cc(N=Nc2ccc(S(=O)(=O)O)cc2)ccc1O [Azo dye 2, 3-methoxy-4-hydroxy-azobenzene-4'-sulfonic acid] |  |  | 
3 |  |  |  |  |  |  |  |  |  | O=S(=O)(O)c1ccc2c(N=Nc3ccccc3)c(O)ccc2c1 [Azo dye 19, 1-phenylazo-2-hydroxynaphthalene-6-sulfonic acid] | not |  | 
4 | 9 | 27 | 15 | 51 | 43 | 56 | 93 | 1 | 1 | COc1cc(N=Nc2ccc(N=Nc3ccc(S(=O)(=O)O)cc3)cc2S(=O)(=O)O)ccc1O [Azo dye 1, 4-(3-methoxy-4-hydroxyphenylazo)-azobenzene-3,4'-disulfonic acid] |  |  | 

Row | SMILES | Percent substrate removed, S. badius 252 [2] [%] | Percent substrate removed, S. diastaticus A12 [3] [%] | Percent substrate removed, S. diastaticus A13 [4] [%] | Percent substrate removed, S. rochei A10 [5] [%] | Percent substrate removed, S. rochei A14 [6] [%] | Percent substrate removed, S. chromofuscus A11 [7] [%] | Percent substrate removed, P. chrysosporium [8] [%] | Percent substrate removed, S. chromofuscus A20 [9] [%] | Percent substrate removed, S. viridosporus T7A [10] [%] | Decolorization by Streptomyces spp. [1] | Percent substrate removed, S. rochei A4 [11] [%] | Percent substrate removed, S. viridosporus T7A [12] [%]
5 | COc1cc(C(=O)O)ccc1O [Vanillic acid, 4-hydroxy-3-methoxybenzoic acid, reference compound] | 7 | 58 | 34 | 91 | 72 | 100 |  | 5 |  |  | 100 | 3
